Earlier results, collected in publication PMC9775153, “Portability of a Small-Molecule Binding Site between Disordered Proteins” (Biomolecules, 2022).

What was measured:
[1] = biological target: T1, Myc402–412 peptide (Homo sapiens, UniProt P01106); set-up: method as in PMID 19022175; conditions: 20 µM peptide; cited from earlier work
T1 construct: purchased Genscript; host or cells: solid phase peptide synthesis

[2] = test system: Myc-Max dimerization; set-up: method as in PMID 13679853; conditions: cited from earlier work
[3] = test system: Max; set-up: method as in PMID 13679853; conditions: cited from earlier work

Structure (SMILES): CCc1ccc(/C=C2/SC(=S)NC2=O)cc1 [1RH]
- effect on peptide secondary structure (CD) [1]: induced a substantial shift in the peptide’s secondary structure
- effect on Myc-Max dimerization [2]: disrupted Myc-Max dimerization
- interaction with Max [3]: not to interact
